From patent US12201626B2, “Bifunctional compositions for the treatment of cancer” (ARMACEUTICA, INC., priority 2018, dated 2025)

What was measured:
[1] = test system: MDA-MB-231 cells; assay: Mitochondrial membrane potential, JC-1 flow cytometry; type: cell-based, human; conditions: 6 h; vs untreated and solvent treated cells
Description: (§1) After treatment, the cells were harvested and stained with 2 μM of the fluorophore 5,5′,6,6′-tetrachloro-1,1′,3,3′-tetraethylbenzimidazolylcarbocyanine iodide (JC-1) following manufacturer's instructions (MitoProbe; Life Technologies, Grand Island, NY, USA). Cells with healthy polarized mitochondria favour JC-1 to form aggregates, which emit a red signal. […] Similar controls as above were concurrently analysed. Data acquisition and analysis were achieved by using CXP software (Beckman Coulter). Each data point was analysed in triplicate.

[2] = test system: HL-60 cells; assay: as above; type: cell-based, human; conditions: 6 h; vs untreated and solvent treated cells
Description: as §1

[3] = test system: panel of human cancer cell lines; assay: Differential Nuclear Staining (DNS) cytotoxicity assay, panel; type: cell-based; conditions: Homo sapiens; 72 h, DNS assay; read-out: CC50 over all cancer cell lines tested
Source text: (§2) In this study, 19 human cell lines were utilized: seven breast human cancer; MDA-MB-468, MCF-7, T47D, HCC1419, HCC70, MDA-MB-231 (triple negative) and its lung metastatic (LM) derivative MDA-MB-231 LM2; four human leukemia/lymphoma cells, HL-60, Ramos, Jurkat and CEM, three human ovarian cancer, Ovcar 8, Ovcar 5 and Ovcar 3, one lung cancer, one melanoma and one pancreatic cell line, A549, A375, Panc-1 respectively. Furthermore, for selectivity/comparative purposes, the cell lines from the non-cancerous origin, MCF-10A, HS-27 were also included. The culture media used for MDA-MB-231, MDA-MB-231 LM2, MDA-MB-468, MCF-7, A549, A375, Panc-1, and HS-27 was DMEM (Hyclone, Logan UT), whereas for T47D, HCC-1419, HCC-70, HL-60, Ramos, Jurkat, CEM, Ovcar 8 and Ovcar 5 was RPMI-1640 (Hyclone, Logan UT). Consistently, both DMEM and RPMI culture media was supplemented with 10% heat-inactivated fetal bovine serum (FBS: Hyclone), 100 U/ml penicillin and 100 μg/ml streptomycin (Thermo Fisher Scientific Inc., Rockford, IL). […] The adherent cells, growing in the logarithmic growth phase at a 60-75% confluence, were detached by utilizing a HyQtase enzyme (Thermo Fisher Scientific Inc.), counted and seeded in 96-well plates at 10,000 cells density in 100 μL of culture medium per well. […]
(§3) To analyze the potential cytotoxic activity of PND, the Differential Nuclear Staining (DNS) assay, which was validated for high-throughput screening (HTS) using live-cell bio-imaging was utilized. […] Montages of 2 by 2 images were captured directly from each individual well of the culture plates by using a multi-well plate reader IN Cell 2000 analyzer, an HTS and high-content analysis (HCA) system (GE Healthcare Life Sciences, Pittsburgh, PA). […] Each experimental data point, as well as controls, were assessed in triplicates. […]
(§4) The selective cytotoxicity index (SCI) denotes the capability of a given experimental compound to kill cancer cells more efficiently while inflicting minimal toxicity to non-cancerous origin cells. Thus, the SCI for PND was calculated as follow: SCI=CC50 of non-cancerous cells/CC50 of cancer cells.

[4] = as above; type: cell-based; conditions: human, read-out: selective cytotoxicity index (SCI)
Source text: as §2, §3, §4

[5] = test system: MDA-MB-231 cells; assay: Differential Nuclear Staining (DNS) cytotoxicity assay; type: cell-based
Source text: (§5) In this study, 19 human cell lines were utilized: seven breast human cancer; MDA-MB-468, MCF-7, T47D, HCC1419, HCC70, MDA-MB-231 (triple negative) and its lung metastatic (LM) derivative MDA-MB-231 LM2; four human leukemia/lymphoma cells, HL-60, Ramos, Jurkat and CEM, three human ovarian cancer, Ovcar 8, Ovcar 5 and Ovcar 3, one lung cancer, one melanoma and one pancreatic cell line, A549, A375, Panc-1 respectively. Furthermore, for selectivity/comparative purposes, the cell lines from the non-cancerous origin, MCF-10A, HS-27 were also included. The culture media used for MDA-MB-231, MDA-MB-231 LM2, MDA-MB-468, MCF-7, A549, A375, Panc-1, and HS-27 was DMEM (Hyclone, Logan UT), whereas for T47D, HCC-1419, HCC-70, HL-60, Ramos, Jurkat, CEM, Ovcar 8 and Ovcar 5 was RPMI-1640 (Hyclone, Logan UT). Consistently, both DMEM and RPMI culture media was supplemented with 10% heat-inactivated fetal bovine serum (FBS: Hyclone), 100 U/ml penicillin and 100 μg/ml streptomycin (Thermo Fisher Scientific Inc., Rockford, IL). The MCF-10A cells were grown in DMEM/F12 supplemented with 10% FBS, 10 μg/ml recombinant human insulin (Sigma), 0.5 μg/ml hydrocortisone (Sigma), 20 ng/ml epidermal growth factor, 2.5 mM L-glutamine, 100 U/ml penicillin, and 100 μg/ml streptomycin. Also, a slight modification of the culture media to the HL-60 and Ovcar 3 cell lines was that 20% of FBS was added to the media (ATCC, Manassas, VA, USA). In addition, Ovcar 3 cells required 10 μg/ml recombinant human insulin (Sigma). The adherent cells, growing in the logarithmic growth phase at a 60-75% confluence, were detached by utilizing a HyQtase enzyme (Thermo Fisher Scientific Inc.), counted and seeded in 96-well plates at 10,000 cells density in 100 μL of culture medium per well. Cells growing in suspension were processed similarly as described above except for the addition of HyQtase. Typically, the incubation conditions of all the cells were at 37° C. in a 5% CO2 humidified atmosphere.
(§6) To analyze the potential cytotoxic activity of PND, the Differential Nuclear Staining (DNS) assay, which was validated for high-throughput screening (HTS) using live-cell bio-imaging was utilized. For this assay, cells were seeded at 10,000 cells/well density in a 96-well plate in 100 μl of culture media, incubated overnight, and treated with a gradient of PND concentrations for 72 h. Two hours before imaging, two fluorescent nucleic acid intercalators were added to each well, Hoechst 33342 and propidium iodide (PI; Invitrogen); at a final concentration of 1 μg/ml each. Due to its high permeability, Hoechst stains all of the cells (total dead and alive), whereas PI only stains dead or dying cells. Montages of 2 by 2 images were captured directly from each individual well of the culture plates by using a multi-well plate reader IN Cell 2000 analyzer, an HTS and high-content analysis (HCA) system (GE Healthcare Life Sciences, Pittsburgh, PA). The following controls were included in every single plate: PBS as solvent/vehicle control, hydrogen peroxide as a positive control for cytotoxicity, and untreated cells to determine the background of toxicity due to cell manipulation and intrinsic factors usually associated with the culture protocol. Each experimental data point, as well as controls, were assessed in triplicates. Cytotoxic concentration 50% (CC50) values were calculated based on a linear interpolation equation. CC50 is defined as the PND concentration required to disrupt the plasma membrane integrity of 50% of the cell population, as compared with solvent-treated cells.
as §4

[6] = test system: HL-60 cells; assay: as above; type: cell-based
Source text: as §5, §6, §4

[7] = as above; type: cell-based; conditions: human; for selectivity ratio at 72 h: read-out: selective cytotoxicity index (SCI)
Source text: as §5, §6, §4

SMILES: COC1=CC=C2Nc3cc(Cl)ccc3C(N=C3C=C(CN4CCCC4)C(=O)C(CN4CCCC4)=C3)=C2N1 [PND, 4-[(7-chloro-2-methoxy-1,5-dihydrobenzo[b][1,5]naphthyridin-10-yl)imino]-2,6-bis(pyrrolidin-1-ylmethyl)cyclohexa-2,5-dien-1-one]
- mitochondrial depolarization (Δψm, JC-1) [1]: significant mitochondrial depolarization
- mitochondrial depolarization (Δψm, JC-1) [2]: significant mitochondrial depolarization
- CC50 [3]: 1600 to 9400 nM
- selectivity ratio at 72 h ([4]; leukemia/lymphoma cells): 1.43 to 3.47
- selectivity ratio at 72 h ([4]; several breast cancer cells vs non-cancerous cells): > 2.5
- selective cytotoxicity index (SCI) ([5]; CC50 of non-cancerous MCF-10A / CC50 of MDA-MB-231): 4.13
- CC50 ([5]; Homo sapiens, MDA-MB-231, 72 h, DNS assay): 1600 nM
- selective cytotoxicity index (SCI) [6]: > 3
- CC50 ([6]; Homo sapiens, 72 h, DNS assay): 1900 nM
- selectivity ratio at 72 h ([7]; HL-60): 3.5
- selectivity ratio at 72 h ([7]; MCF-7 cells against non-cancerous MCF-10A cells, vs MCF-10A): 4.13
- CC50 at 72 h ([7]; MCF-10A non-cancerous cells): 6600 nM
- selectivity ratio at 72 h ([7]; MDA-MB-231 LM2 cells against non-cancerous MCF-10A cells, vs MCF-10A): 2.54
- selectivity ratio at 72 h ([7]; MDA-MB-231 cells against non-cancerous MCF-10A cells, CC50 of non-cancerous MCF-10A / CC50 of MDA-MB-231): > 3
- selectivity ratio at 72 h ([7]; MDA-MB-468 cells against non-cancerous MCF-10A cells, vs MCF-10A): 3.88
- selectivity ratio at 72 h ([7]; T47D cells (against non-cancerous cells, line not specified)): < 1
- selectivity ratio at 72 h ([7]; HCC-70): < 1
- selectivity ratio at 72 h ([7]; Jurkat): 3.3
- selectivity ratio at 72 h ([7]; Ramos): 3
- selectivity ratio at 72 h ([7]; lung cancer line): < 2
- selectivity ratio at 72 h ([7]; melanoma cell line): 3.2
- selectivity ratio at 72 h ([7]; pancreatic cancer line): < 2
- selectivity ratio at 72 h ([7]; two of the three ovarian cancer lines): 3.9
